Laboratory results as given in ChEMBL document CHEMBL5728835, “3-(5-amino-1-oxoisoindolin-2-yl)piperidine-2,6-dione derivatives and uses thereof” (2021).
pEC50: −log10 of the molar value.

Molecular target: Eukaryotic peptide chain release factor GTP-binding subunit ERF3A (Homo sapiens, UniProt P15170)
Sequence (P15170 whole entry): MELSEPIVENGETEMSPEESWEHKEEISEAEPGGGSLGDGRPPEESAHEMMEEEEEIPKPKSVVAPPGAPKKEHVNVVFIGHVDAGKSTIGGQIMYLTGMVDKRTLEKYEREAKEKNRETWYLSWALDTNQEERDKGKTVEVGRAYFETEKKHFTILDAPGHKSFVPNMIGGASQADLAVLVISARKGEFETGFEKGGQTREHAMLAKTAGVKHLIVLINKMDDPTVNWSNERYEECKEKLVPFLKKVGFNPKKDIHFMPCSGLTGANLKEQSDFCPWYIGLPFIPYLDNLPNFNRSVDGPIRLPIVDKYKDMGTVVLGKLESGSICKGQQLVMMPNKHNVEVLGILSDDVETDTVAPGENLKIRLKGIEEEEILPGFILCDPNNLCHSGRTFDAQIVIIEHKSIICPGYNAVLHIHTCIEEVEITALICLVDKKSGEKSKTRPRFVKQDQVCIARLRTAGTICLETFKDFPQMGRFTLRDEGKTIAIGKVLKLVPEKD

Work on CN[C@H]1CC=CC[C@@H]1N(C)c1ccc2c(c1)CN(C1CCC(=O)NC1=O)C2=O (stereo partly specified) yielded a pEC50 of under 4.30.
